{"source": "paper PMC9081605", "about": "“A High-Throughput Toxicity Screen of 42 Per- and Polyfluoroalkyl Substances (PFAS) and Functional Assessment of Migration and Gene Expression in Human Placental Trophoblast Cells” (Frontiers in Toxicology, 2022)", "key": {"JEG-3 cells [1]": {"test_system": "JEG-3 cells", "assay": "Mitochondrial membrane potential, JC-10 assay (HTTS)", "format": "cell-based, human", "conditions": "for MMP ↓, lowest concentration at which the mean response value exceeded the mean control value ± 2*SD (rough binning): 24 h, decrease; for EC50: four-parameter fit, estimates meeting inclusion criteria; for MMP relative to vehicle control (rough binning): after 24 h, in at least one concentration", "summary_of_the_method": "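JEG-3 cells seeded at 2,500 per well were exposed to PFAS for 24 h at 37 °C, with 2.5% methanol vehicle. After a PBS wash, 20 μM JC-10 was added for 1 h at 37 °C. Membrane potential was taken as the green (490/525 nm) to red (540/590 nm) fluorescence ratio.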"}, "JEG-3 cells [2]": {"test_system": "JEG-3 cells", "assay": "Scratch wound migration assay", "format": "cell-based, human", "conditions": "for cellular migration relative to vehicle control: after 24 h of exposure, 25-200 µM; for significant effects on migration observed at 24 h, followed to 72 h: any concentration, by 72 h; for Migration, percent of wound closure: 100 µM, after 72 h", "description": "JEG-3 cells were cultured as described in Cell Culture section, and six PFAS were evaluated across an 8-point linear concentration curve ranging from 25 to 200 µM (25 µM steps): PFOA (335-67-1), GenX (62037-80-3), PFOS (1763-23-1), perfluorooctanesulfonamide (PFOSA, 754-91-6), perfluorooctanamide (PFOAA, 423-54-1), and perfluorononanoic acid (PFNA, 375-95-1). The vehicle control group consisted of 98% media + 2% methanol to match the concentration of methanol in the media at the highest PFAS concentration tested (200 µM). Cadmium chloride (25 µM) was used as a positive control for cytotoxicity ([Brooks and Fry, 2017]). Chemical exposure plate maps were designed so that all experimental conditions were tested in at least technical duplicates per plate. The outer edges of each plate received media alone and were excluded from all analyses to avoid edge effects. JEG-3 cells were counted and seeded at a density of 80,000 cells per well in black-walled, clear bottom 96-well plates (Corning #CLS3603, Millipore Sigma) and allowed to adhere and grow for 36 h. After approximately 36 h, 96-well plates were imaged on the IncuCyte Zoom to obtain cellular confluence measurements prior to chemical dosing (0 h). Media was then removed from wells and replaced with fresh serum-free media containing chemical treatments (serum-free exposure media) using the Viaflo liquid handling device. After 1 h of treatment with serum-free exposure media, plates were again imaged for cellular confluence using the IncuCyte Zoom. Serum-free exposure media was then removed from wells and wells were scratched by dragging a 200 µl pipette tip from top to bottom of each well, changing tips every well. Fresh media containing serum and chemical treatments (exposure media) was added to plates using a liquid handling device and allowed to grow for 72 h, with imaging via the IncuCyte Zoom every 6 h.\nPlate well bottom images were evaluated using automated cell masking as described in Proliferation section. Cell migration was calculated as the change in cellular confluence from the baseline measurement obtained immediately post-scratch to each subsequent time point (24, 48, and 72 h, post-scratch).\nRaw migration assay data exported from IncuCyte software were analyzed using GraphPad Prism 8.0 (GraphPad Software, San Diego, CA)). Prior to analysis, a minimum starting confluence value of 70% was set to ensure comparisons between samples were not skewed. Images with a starting confluence of less than 70% were excluded from analysis. Statistical analysis was performed using multiple unpaired t-tests to compare treated groups to the vehicle control followed by post hoc correction for multiple tests using the Bonferroni-Dunn method. Concentration-response analysis to determine migration assay EC50s was attempted but was not able to be modeled due to the non-linear nature of the concentration-response relationship for this endpoint."}, "[3]": {"conditions": "JEG-3 cells, 24 h exposure, read-out: MMP EC50 ± SD"}, "[4]": {"conditions": "Homo sapiens, JEG-3, 24 h, read-out: MMP EC50 ± SD, JEG-3 cells, 24 h exposure"}}, "note": "Like-named read-outs stand apart in the source and are kept apart here."}
{"smiles": "O=C(O)C(F)(F)C(F)(F)C(F)(F)C(F)(F)C(F)(F)C(F)(F)C(F)(F)C(F)(F)F", "note": "[Perfluorononanoic acid]", "values": [{"measurement": "MMP ↓, lowest concentration at which the mean response value exceeded the mean control value ± 2*SD (rough binning)", "setting": "JEG-3 cells [1]; JEG-3 cells", "value": 300, "unit": "µM"}, {"measurement": "EC50", "setting": "JEG-3 cells [1]; [3]", "value": "305 ± 13.6", "unit": "µM"}, {"measurement": "MMP relative to vehicle control (rough binning)", "setting": "JEG-3 cells [1]", "value": "reduced MMP"}, {"measurement": "cellular migration relative to vehicle control", "setting": "JEG-3 cells [2]", "value": "significantly reduced"}, {"measurement": "significant effects on migration observed at 24 h, followed to 72 h", "setting": "JEG-3 cells [2]", "value": "attenuated"}]}
{"smiles": "N.O=C(O)C(F)(OC(F)(F)C(F)(F)C(F)(F)F)C(F)(F)F", "note": "(stereo not drawn) [Ammonium perfluoro-2-methyl-3-oxahexanoate]", "values": [{"measurement": "Migration, percent of wound closure", "setting": "JEG-3 cells [2]", "value": 79, "unit": "%"}, {"measurement": "cellular migration relative to vehicle control", "setting": "JEG-3 cells [2]", "value": "significantly reduced"}]}
{"smiles": "O=S(=O)(O)C(F)(F)C(F)(F)C(F)(F)C(F)(F)C(F)(F)C(F)(F)C(F)(F)C(F)(F)F", "note": "[Perfluorooctanesulfonic acid]", "values": [{"measurement": "MMP ↓, lowest concentration at which the mean response value exceeded the mean control value ± 2*SD (rough binning)", "setting": "JEG-3 cells [1]; JEG-3 cells", "value": 350, "unit": "µM"}, {"measurement": "EC50", "setting": "JEG-3 cells [1]; JEG-3 cells, 24 h exposure, listed as PFOS, read-out: MMP EC50 ± SD", "value": 353, "unit": "µM"}, {"measurement": "EC50", "setting": "JEG-3 cells [1]; [3]", "value": "353 ± 6.7", "unit": "µM"}, {"measurement": "MMP relative to vehicle control (rough binning)", "setting": "JEG-3 cells [1]", "value": "reduced MMP"}, {"measurement": "Migration, percent of wound closure", "setting": "JEG-3 cells [2]", "value": 57, "unit": "%"}, {"measurement": "cellular migration relative to vehicle control", "setting": "JEG-3 cells [2]", "value": "significantly reduced"}]}
{"smiles": "O=C(O)C(F)(F)C(F)(F)C(F)(F)C(F)(F)C(F)(F)C(F)(F)C(F)(F)F", "note": "[Perfluorooctanoic acid]", "values": [{"measurement": "EC50", "setting": "JEG-3 cells [1]; [4]", "value": "360 ± 18", "unit": "µM"}, {"measurement": "minimal effective concentration", "setting": "JEG-3 cells [1]; Homo sapiens, JEG-3, 24 h, read-out: MMP ↓, lowest concentration at which the mean response value exceeded the mean control value ± 2*SD (rough binning)", "value": 450, "unit": "µM"}, {"measurement": "MMP relative to vehicle control (rough binning)", "setting": "JEG-3 cells [1]", "value": "reduced MMP"}, {"measurement": "Migration, percent of wound closure", "setting": "JEG-3 cells [2]", "value": 72, "unit": "%"}, {"measurement": "cellular migration relative to vehicle control", "setting": "JEG-3 cells [2]", "value": "significantly reduced"}, {"measurement": "significant effects on migration observed at 24 h, followed to 72 h", "setting": "JEG-3 cells [2]", "value": "attenuated"}]}
{"smiles": "NS(=O)(=O)C(F)(F)C(F)(F)C(F)(F)C(F)(F)C(F)(F)C(F)(F)C(F)(F)C(F)(F)F", "note": "[Perfluorooctanesulfonamide]", "values": [{"measurement": "EC50", "setting": "JEG-3 cells [1]; [4]", "value": "227 ± 370", "unit": "µM"}, {"measurement": "cellular migration relative to vehicle control", "setting": "JEG-3 cells [2]", "value": "significantly reduced"}]}
